Reference: patent US7439063B2, “Neuroprotective synergy of erythropoietin and insulin-like growth factors” (Burnham Institute for Medical Research, priority 2002, dated 2008)
Where two headings read alike, the source gives them in different places.

How the values were obtained:
cerebrocortical neurons = conditions: 6, 12, 16 and 48 hours after NMDA exposure; mixed neuronal-glial cultures
Description: The total number of viable MAP2 positive cells was assayed to avoid the effects of secondary necrosis seen at longer survival times (Bonfoco et al., supra, 1995).
Neuronal survival was assayed as the total number of MAP2 positive cells to avoid the confounding effects of secondary necrosis, which can occur at later time points and obfuscate the number of apoptotic cells (Bonfoco et al., supra, 1995).

Akt = Akt phosphorylation on serine-473 (immunoblot); assay type: cell-based, rat
[1] = system: rat primary cerebrocortical cultures
Description: The neuroprotective effects of concurrent EPO and IGF-I administration were compared to individual treatment with EPO or IGF-I in rat primary cerebrocortical cultures.
Neuronal apoptosis was quantified by double labeling for TUNEL reactivity, which in conjunction with condensed morphology is indicative of apoptosis, and the neuron-specific protein microtubule associated protein-2 (MAP2) 16 hours after NMDA insult.
For these experiments, mixed neuronal/glial cerebrocortical cultures were prepared as described previously (Bonfoco et al., supra, 1995); Lei et al., Neuron 8:1087-1099 (1992); and Lipton et al., Nature 364:626-632 (1993)). In brief, cortical tissue from embryonic day 16 Sprague-Dawley rats was dissociated in 0.5% trypsin and plated on poly-L-lysine coated glass coverslips at a density of 10^5 cells per 35 mm culture dish in serum-containing medium. Prior to experimental use, cerebrocortical neurons were kept at 37° C. and 5% CO2 for at least 17 days to permit full expression of NMDA receptors (Lei et al., supra, 1992; and Lipton et al., supra, 1993).
EPO and IGF-I incubations were performed essentially as follows. Human recombinant EPO purchased from Amgen (Epoietin alfa, 2000 IU/ml) was diluted in cell culture medium to a final concentration of 5-10 U/ml. Insulin-like growth factor-I (IGF-I) (Calbiochem; La Jolla, Calif.) was diluted in cell culture medium to a final concentration of 50-100 ng/ml.
NMDA incubations were performed as follows. Cerebrocortical cultures were exposed to 200 μM NMDA in nominally Mg^2+-free Earle's Balanced Salt Solution (EBSS), containing 1.8 mM CaCl2 and 5 μM glycine for 20 minutes. After NMDA exposure, cultures were washed with EBSS and then placed in conditioned tissue culture medium filtered with a […] Acrodisk filter (Perkin-Elmer; Wellesley, Mass.) to remove activated microglia. Where indicated, EPO, IGF-I or both EPO and IGF-I were added to the conditioned media.
Detection of apoptotic neurons was performed essentially as follows. After experimental incubation, cerebrocortical cultures were fixed in PBS (150 mM NaCl, 1.7 mM monobasic sodium phosphate, 9.1 mM dibasic sodium phosphate) with 4% paraformaldehyde, and permeabilized in PBS containing 1% Tween-20. Apoptotic cells were identified by condensed morphology in conjunction with TUNEL using the Apoptosis Detection System (Promega; Madison, Wis.). […]
For PI3-kinase inhibition, cultures were prepared and incubated with NMDA alone, or with EPO or IGF-I individually, or EPO in combination with IGF-I, as described above. […] Neuronal apoptosis was assessed 16 hours after NMDA application by determining the percentage of MAP2-positive cells that were also TUNEL positive, as described above.

caspase-3 = assay: Caspase-3 (DEVD) cleavage assay in culture lysates; assay type: cell-based, rat; conditions: lysates 16 hours after NMDA exposure; simultaneous application or 3 hour preincubation
Description: To study the effect of combined EPO/IGF-I treatment on proteolytic activity of caspase-3, protein lysates were prepared from cerebrocortical cultures 16 hours after NMDA exposure, and caspase-3 activity was assayed using the fluorescent caspase-3 substrate, DEVD-7-amino-4-trifluoromethyl-coumarin (DEVD-AFC).
Caspase-3 (DEVD) cleavage assays were performed as described previously. Briefly, cerebrocortical cultures were lysed in cold buffer containing 10% sucrose, 0.1% CHAPS, 100 mM HEPES (pH 7.5), and 10 mM dithiothreitol (DTT). Cytoplasmic protein extracts (200 μg) were incubated for 30 minutes at 37° C. with 80 μM caspase-3 peptide substrate DEVD-AFC (Enzyme Systems Products; Livermore, Calif.). Free fluorescent AFC released by caspase-3 activity was measured on a FluoroMax2 fluorometer at 400 nm excitation and 505 nm emission.

[2] = system: active caspase-3/XIAP complex; assay: XIAP associated with active caspase-3 (immunoprecipitation, densitometry); assay type: cell-based, rat; conditions: NMDA exposure alone
Description: In mixed cerebrocortical cultures, EPO is known to induce expression of XIAP and c-IAP, two related factors capable of inhibiting caspase-3 proteolytic activity (Digicaylioglu and Lipton, supra, 2001; and Holcik and Korneluk, Nat. Rev. Mol. Cell. Biol. 2:550-556 (2001)). Here, cerebrocortical cultures were analyzed for the effect of combined EPO and IGF-I treatment on association of XIAP and active caspase-3. Cultures were incubated with EPO, IGF-I and NMDA and, after immunoprecipitation of the active form of caspase-3, immunoprecipitates were probed for the presence of XIAP using western blotting.
To perform these experiments, cerebrocortical cultures were exposed to NMDA, or EPO and IGF-I, or concurrently exposed to NMDA and EPO/IGF-I as described above. Immunoprecipitation of culture lysates was performed using precleared whole-cell lysates, incubated with a 1:100 dilution of antibody specifically recognizing the cleaved form of caspase-3 (Cell Signaling Technologies) for one hour at room temperature, followed by addition of protein A/G-Sepharose beads and immunoprecipitation as described above. The immunoprecipitates were separated by electrophoresis and transferred to a nitrocellulose membrane, which was blotted with a 1:200 dilution of anti-XIAP antibody (Trevigen; Gaithersburg, Md.).

erythropoietin receptor = target: T1, erythropoietin receptor (Homo sapiens, UniProt P19235); conditions: known erythropoietin mimetic peptides; cited from earlier work
T1 sequence (P19235 25-249 limits assumed): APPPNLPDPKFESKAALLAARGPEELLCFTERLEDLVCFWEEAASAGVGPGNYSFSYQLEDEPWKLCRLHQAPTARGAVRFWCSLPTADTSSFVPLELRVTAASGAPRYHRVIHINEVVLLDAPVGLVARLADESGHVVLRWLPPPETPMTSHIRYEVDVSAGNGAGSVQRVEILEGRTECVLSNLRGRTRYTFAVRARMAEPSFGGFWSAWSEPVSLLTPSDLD

[3] = system: p85 subunit of PI3-kinase; assay: phosphorylation of the p85 subunit of PI3-kinase (immunoblot); assay type: cell-based, rat; conditions: IGF-I: maximal phosphorylation; EPO: phosphorylation observed; treated 10, 20 or 30 minutes
Description: PI3-kinase is activated by phosphorylation of a p85 regulatory subunit, which leads to release of the catalytic subunit (Pleiman et al., Science 263:1609-1612 (1994)). To determine if EPO or IGF-I induces phosphorylation of the p85 subunit of PI3-kinase, rat cerebrocortical cultures were treated with EPO or IGF-I for 10, 20 or 30 minutes, and protein lysates from these cultures analyzed by immunoblotting for the presence of phospho-p85. As shown in FIG. 5B (upper and lower panels), both factors induced p85 phosphorylation in a time-dependent manner. […] Equal protein loading was confirmed by analyzing the amounts of total p85 with a second antibody.
Preparation of total cell extracts for immunoblotting or immunoprecipitation was performed essentially as follows. Cultures were washed briefly in cold PBS. After addition of ice cold lysis buffer (50 mM Tris-Cl, 150 mM NaCl, 1.1 mM PMSF, 10 μg/ml Aprotinin, 1% Triton X-100, pH 8.0, 2 mM Ortho-Vanadate, 0.1% deoxycholate), cells were scraped off the culture dishes. Lysates were transferred to a microcentrifuge tube, vortexed for 15 seconds at 4° C., and cleared by centrifugation for 20 minutes at 14,000×g at […]. Protein concentrations were determined using a BCAProtein assay kit (Pierce; Rockford, Ill.).
Immunoblotting was performed as follows. […]

[4] = naturally occurring peptide; cited from earlier work
[5] = system: focal cerebral ischemic damage; conditions: administered intranasally; cited from earlier work
[6] = brain delivery of intranasally applied radiolabeled EPO (autoradiography); assay type: in vivo
Description: As disclosed herein, EPO or an active fragment or analog thereof can cross the blood-brain barrier following intranasal administration, whereby unwanted systemic effects such as increased hematocrit can be avoided.

CN[C@H](CC(=O)O)C(=O)O [NMDA, N-methyl-D-aspartate]
number of surviving neurons in mixed cultures (cerebrocortical neurons): dramatic decrease in the number of surviving neurons | constitutive levels of Akt phosphorylation (Akt; 20-minute exposure to NMDA): reduced constitutive levels of Akt phosphorylation | apoptotic appearance and TUNEL reactivity, % of MAP2-labeled neurons ([1]; 200 μM NMDA for 20 minutes alone, 16 hours after NMDA insult): 76+7% | caspase-3-like activity (DEVD cleavage) (caspase-3): increased DEVD cleavage | amount of XIAP associated with active caspase-3, NMDA alone [2]: modest increase

GGCRIGPITWVCGG [AF11154]
IC50 (erythropoietin receptor): 10 µM

GGDYHCRMGPLTWVCKPLGG [EMP2]
IC50 (erythropoietin receptor): 0.2 µM

GGLYLCRFGPVTWDCGYKGG [EMP5]
IC50 (erythropoietin receptor): 1 µM

GGTYSCHFGPLTWVCKPQGO [EMP1]
IC50 (erythropoietin receptor): 0.2 µM

GGVYACRMGPITWVCSPLGC [EMP3]
IC50 (erythropoietin receptor): 0.3 µM

IGF-I: Insulin-like growth factor-I (Calbiochem), also known as somatomedin C, a hormone of 70 amino acids
time to phosphorylation of p85 subunit of PI3-kinase [3]: 10 min | pI [4]: 8.4 | protection against focal cerebral ischemic damage [5]: can protect against focal cerebral ischemic damage | phospho-serine-473 Akt (Akt; three hour incubation): moderate Akt activation | cell death, treatment at the time of NMDA insult ([1]; factor applied individually at the time of NMDA insult): did not significantly reduce cell death | neuronal viability in control incubations ([1]; in the absence of NMDA exposure): did not affect neuronal viability | neuronal apoptosis after preincubation ([1]; preincubation for three hours before NMDA, EPO 10 U/ml, IGF-I 100 ng/ml): significantly attenuated neuronal apoptosis

IGF-II: naturally occurring, relatively neutral peptide with 60% amino acid homology to native IGF-I
pI [4]: 6.4

VGNYMCHFGPITWVCRPGGG [EMP4]
IC50 (erythropoietin receptor): 0.5 µM

radiolabeled EPO: intranasally applied radiolabeled erythropoietin
distribution after intranasal application [6]: migrated into olfactory tissue and was observed in the rostral migratory stream | distribution after intranasal application ([6]; listed as radiolabeled erythropoietin): accumulated in brain tissue
